“Also recorded” adds a separate entry of the source.
How the values were obtained:
eeAChE = target: T1, eeAChE (Electrophorus electricus, UniProt O42275); experiment: In vitro inhibition of eeAChE (Ellman method); assay type: biochemical, electric eel
T1 construct: eeAChE (from electric eel); purchased Sigma-Aldrich (St. Louis, MO, USA); host or cells: electric eel
Description: (§1) The in vitro inhibitory activities of test compounds against AChE and BuChE were determined by the spectrophotometric method of Ellman[25]. […] For each assay, 160 μL of 1.5 mM DTNB, 50 μL of AChE (0.22 U/mL for eeAChE; 0.05 U/mL for hAChE) or eqBuChE (0.12 U/mL) were incubated with 10 μL of different concentrations of test compounds at 37 °C for 6 min.

eqBuChE = target: T2, eqBuChE (Equus caballus, UniProt P81908); experiment: In vitro inhibition of eqBuChE (Ellman method); assay type: biochemical, equine; conditions: read-out: eqBuChE Inhibition (%)
T2 construct: eqBuChE (from equine serum); purchased Sigma-Aldrich (St. Louis, MO, USA); host or cells: equine serum
T2 sequence (P81908 whole entry): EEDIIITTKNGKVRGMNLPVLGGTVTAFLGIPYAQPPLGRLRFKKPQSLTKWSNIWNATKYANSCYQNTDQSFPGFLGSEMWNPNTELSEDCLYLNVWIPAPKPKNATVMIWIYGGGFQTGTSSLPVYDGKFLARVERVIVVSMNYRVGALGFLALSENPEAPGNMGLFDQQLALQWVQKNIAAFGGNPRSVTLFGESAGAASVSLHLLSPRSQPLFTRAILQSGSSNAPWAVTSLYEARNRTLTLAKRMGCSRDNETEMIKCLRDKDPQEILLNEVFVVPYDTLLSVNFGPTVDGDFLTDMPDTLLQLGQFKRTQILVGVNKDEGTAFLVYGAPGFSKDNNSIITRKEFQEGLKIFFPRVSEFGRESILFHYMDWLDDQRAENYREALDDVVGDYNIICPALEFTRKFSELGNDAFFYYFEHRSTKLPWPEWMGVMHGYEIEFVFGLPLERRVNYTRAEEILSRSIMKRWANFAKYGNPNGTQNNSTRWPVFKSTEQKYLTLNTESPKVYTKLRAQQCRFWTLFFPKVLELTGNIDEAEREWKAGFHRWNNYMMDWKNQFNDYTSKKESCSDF
Description: as §1

[1] = target: T3, AChE-induced Aβ1-42 aggregation (Electrophorus electricus, UniProt O42275); experiment: Inhibition of AChE-induced Aβ1-42 aggregation (ThT assay); assay type: biochemical; conditions: inhibitor 100 μM; thioflavin-T fluorescence
T3 construct: eeAChE (from electric eel); purchased eeAChE: Sigma-Aldrich (St. Louis, MO, USA); Aβ1-42: Royobiotech Co., Ltd (Shanghai, China)
T3 sequence (O42275 24-633): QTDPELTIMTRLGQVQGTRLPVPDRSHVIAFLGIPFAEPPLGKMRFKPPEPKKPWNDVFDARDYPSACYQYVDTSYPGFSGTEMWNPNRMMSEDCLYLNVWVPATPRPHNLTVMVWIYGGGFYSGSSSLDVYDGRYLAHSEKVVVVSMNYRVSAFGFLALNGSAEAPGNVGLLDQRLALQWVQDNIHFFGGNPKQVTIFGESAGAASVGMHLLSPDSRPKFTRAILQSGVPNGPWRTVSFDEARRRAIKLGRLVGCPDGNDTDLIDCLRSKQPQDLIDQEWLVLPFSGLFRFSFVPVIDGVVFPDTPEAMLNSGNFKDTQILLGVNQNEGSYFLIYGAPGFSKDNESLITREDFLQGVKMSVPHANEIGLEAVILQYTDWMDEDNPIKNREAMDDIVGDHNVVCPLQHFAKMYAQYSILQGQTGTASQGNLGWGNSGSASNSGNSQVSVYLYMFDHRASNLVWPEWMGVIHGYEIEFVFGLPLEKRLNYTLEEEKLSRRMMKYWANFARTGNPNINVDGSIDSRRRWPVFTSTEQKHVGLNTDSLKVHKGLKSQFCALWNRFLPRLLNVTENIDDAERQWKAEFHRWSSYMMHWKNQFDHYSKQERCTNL
Description: 1, 1, 1, 3, 3, 3-hexafluoro-2-propanol (HFIP) and Thioflavin T (ThT) were obtained from TCI (Shanghai) Development. β-Amyloid1-42 (Aβ1-42), supplied as trifluoroacetate salt, and eeAChE were purchased from Royobiotech Co., Ltd (Shanghai, China) and Sigma-Aldrich (St. Louis, MO, USA), respectively. For co-incubation experiments, aliquots of Aβ1-42 peptide and AChE in presence or absence of the test compounds were incubated for 48 h at 37 °C. […] The percent inhibition of the AChE-induced Aβ aggregation due to the presence of inhibitor was calculated by the following formula: 100 – (IFi/IFo*100), where IFi and IFo are the fluorescence intensities obtained for Aβ1-42 aggregation in the presence and in the absence of inhibitor, respectively. Each assay was run in triplicate and each reaction was repeated at least three independent times.

[2] = target: T4, self-induced Aβ1-42 aggregation (Homo sapiens, UniProt P05067); experiment: Inhibition of self-induced Aβ1-42 aggregation (ThT assay); assay type: biochemical; conditions: read-out: Inhibition of Aβ1–42 aggregation (%) Self-induced
T4 construct: Aβ1-42 was obtained from Royobiotech Co., Ltd (Shanghai, China); purchased Royobiotech Co., Ltd (Shanghai, China)
T4 sequence (P05067 672-713): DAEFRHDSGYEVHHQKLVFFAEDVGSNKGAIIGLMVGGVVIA
Description: The inhibitory activities of compounds 4c-f and 9a-b on self-induced Aβ1-42 aggregation were also measured by the ThT assay. HFIP and ThT were purchased from TCI (Shanghai) Development. Aβ1-42 was obtained from Royobiotech Co., Ltd (Shanghai, China). The monomeric Aβ1-42 samples were prepared by HFIP and diluted with a 50 mM phosphate buffer (pH 7.4) to give a 25 μM solution. The test compound was dissolved in DMSO (250 μM) for storage and needed not to be diluted prior to use. […]. Then, 200 μL of 5 μM ThT in 50 mM glycine-NaOH buffer (pH 8.0) was added, and the percent inhibition was calculated by the method same as that of AChE-induced Aβ1–42 experiment.

[3] = test system: human neuroblastoma SH-SY5Y cells; experiment: Cytotoxicity on SH-SY5Y cells (MTT assay); assay type: cell-based; conditions: 12.5–100 µM, 24 h
Description: The cytotoxicity of test compound on the human neuroblastoma SH-SY5Y cells was evaluated by MTT assay. The SH-SY5Y cells were grown in a 1:1 mixture of Eagle's minimum essential medium (EMEM) and ham's F-12 medium supplemented with 10% foetal bovine serum (FBS), 100 U/mL penicillin and […] streptomycin in 5% CO2 at 37 °C. For assay, cells were seeded into 96-well plates at a density of 10000 cells/well and treated with compound 4c for 24 h. After this treatment, 20 μL of MTT at 37 °C was added. Four hours later, the medium was removed, and 200 μL of DMSO was added to dissolve the formazan crystal formed. The absorbance was measured using a microculture plate reader with a test wavelength of 570 nm and a reference wavelength of 630 nm. Results are expressed as the mean ± SD of three independent experiments.

Kunming mice = experiment: Acute oral toxicity study; assay type: in vivo; conditions: oral, 625, 1250 and 2500 mg/kg, observed 14 days
Description: A total of 40 Kunming mice (half male and half female) were used to determine the acute toxicity of compound 4c[31]^,[32]. All mice weighting 18–25 g were obtained from Hunan SJA Laboratory Animal Co., Ltd. and randomly divided into corresponding groups. They were maintained under a 12 h light/dark cycle and allowed free access to tap water and standard laboratory chow. The room was maintained at temperature of 23 ± 2 °C with a relative humidity of 55 ± 5%. Prior to dosing, all animals were acclimated to this environment for 5 days. Compound 4c was suspended in 0.5% carboxymethyl cellulose sodium (CMC-Na) salt solution and given via oral administration to the divided experimental groups (0, 625, 1250 and 2500 mg/kg, n = 10 per group). After administration, animals were observed continuously for the first 4 h for any abnormal behavioural changes or deaths, then intermittently for the next 24 h, and occasionally thereafter for 14 days for the onset of any delayed effects. On the 14th day, all mice were sacrificed after being anaesthetized by ether, and the possible toxic damage to liver, heart and kidneys was examined macroscopically.

[4] = from PAMPA-BBB Pe
Description: (§2) Afterwards, the acceptor filter plate was carefully placed on the donor plate to make the coated membrane touch both donor solution and acceptor buffer. […] Pe was calculated by the following expression: Pe = {−VdVa/[(Vd + Va)At]}ln (1-drugacceptor/drugequilibrium), where Vd is the volume of donor well, Va is volume in acceptor well, A is the filter area, t is the permeation time, drugacceptor is the absorbance obtained in the acceptor well and drugequilibrium is the theoretical equilibrium absorbance. Each compound was analysed at five wavelengths in four wells at least three independent runs, and the results were expressed as mean ± SD.

in vitro = conditions: PAMPA
Description: as §2

hAChE [5] = target: T5, hAChE (Homo sapiens, UniProt P22303); experiment: Kinetic study of hAChE inhibition (Lineweaver-Burk); assay type: biochemical; set-up: Acetylcholinesterase (AChE, from electric eel and human erythrocytes); purchased Sigma-Aldrich (St. Louis, MO, USA)
T5 sequence (P22303 32-617 isoform P22303-2 limits assumed): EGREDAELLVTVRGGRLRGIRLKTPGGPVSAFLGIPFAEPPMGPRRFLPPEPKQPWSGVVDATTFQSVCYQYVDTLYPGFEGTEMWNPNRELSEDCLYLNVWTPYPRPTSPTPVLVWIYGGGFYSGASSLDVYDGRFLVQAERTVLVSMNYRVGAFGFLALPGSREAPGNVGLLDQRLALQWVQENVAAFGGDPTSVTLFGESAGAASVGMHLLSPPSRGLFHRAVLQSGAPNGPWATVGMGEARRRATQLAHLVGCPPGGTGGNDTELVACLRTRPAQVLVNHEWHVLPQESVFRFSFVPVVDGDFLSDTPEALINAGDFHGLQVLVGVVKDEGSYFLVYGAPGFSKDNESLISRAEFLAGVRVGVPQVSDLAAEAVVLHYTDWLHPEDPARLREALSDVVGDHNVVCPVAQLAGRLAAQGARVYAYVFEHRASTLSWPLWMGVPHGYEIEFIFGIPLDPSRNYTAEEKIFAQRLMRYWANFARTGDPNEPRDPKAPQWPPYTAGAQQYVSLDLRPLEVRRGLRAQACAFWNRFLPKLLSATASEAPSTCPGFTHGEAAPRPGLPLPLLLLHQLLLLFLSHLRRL
Description: To determine the inhibition mechanism of present compounds, compound 4c was taken for kinetic analysis by Ellman’s method. Three concentrations of 4c were selected for the study, and hAChE was chosen as enzyme source. Following a similar method mentioned above in enzyme inhibition assay, Lineweaver–Burk reciprocal plots were constructed by plotting 1/velocity against 1/[substrate] at varying concentrations of the substrate acetylthiocholine (0.05 – 0.5 mM). All measurements were performed in triplicate and data analysis was performed with Graph Pad Prism 4.03 software (San Diego, CA, USA).

hAChE [6] = target: T5, hAChE; experiment: In vitro inhibition of hAChE (Ellman method); assay type: biochemical; set-up: Acetylcholinesterase (AChE, from electric eel and human erythrocytes); purchased Sigma-Aldrich (St. Louis, MO, USA); host or cells: human erythrocytes
Description: as §1

T1 sequence (O42275 24-633): as the sequence (O42275 24-633) above

In the case of O=c1ccc2ccc(OCCCCSC(=S)N3CCCCC3)cc2[nH]1 [4c, 4-((2-oxo-1,2-dihydroquinolin-7-yl)oxy)butyl piperidine-1-carbodithioate], the IC50 (eeAChE) is reported as 220 ± 30 nM, the “times more potent than galanthamine on AChE” value (eeAChE; ratio of eeAChE IC50 values) is reported as 7.5 times and the inhibition at 10 µM (eqBuChE) is reported as 45.4 ± 8.34%. For the same compound, the inhibition at 100 µM [1] was 29 ± 2.06%, the inhibition at 25 µM [2] was 30.7 ± 6.54% and the “effect on cell viability (cytotoxicity)” value [3] was “did not show a significant effect on cell viability; also recorded: negligible toxicity; also recorded: no toxicity”. The acute toxicity (Kunming mice) was “no evident toxicity signs; also recorded: no significant acute toxicity; also recorded: well tolerated”, the “Prediction of penetration into CNS” value [4] was “CNS+ (CNS + is predicted as high BBB permeation with Pe (×10^6 cm/s) > 3.33)” and the Papp at 18 h, 25 μg/mL (in vitro) was 8.91 ± 2.03 ×10⁻⁶ cm/s. The type of inhibition (hAChE [5]; Lineweaver-Burk plots, hAChE, 0.1, 0.2, 0.4 μM inhibitor) was “mixed-type inhibitor; also recorded: mixed-type inhibition”, the Ki (hAChE [5]; replots of slope versus concentration of 4c, hAChE, read-out: competitive inhibition constant Ki) was 225 nM and the IC50 (hAChE [6]) was 160 ± 20 nM. For the same compound, the “fold more potent on hAChE than tacrine” value (hAChE [6]; ratio of hAChE IC50 values) was roughly 3 fold.
